# Entries after “also recorded” stand apart in the source; their conditions may differ.
# Tests used:
# Akt = Akt phosphorylation immunoblot in microglia; type: cell-based, mouse; settings: for effect on fibrin-mediated phosphorylation of Akt: microglia on fibrinogen plus peptide; for effect on LPS-mediated phosphorylation of Akt: microglia with LPS plus peptide
# Method: Immunoblots. Western blots were performed using standard protocols (55). Microglia were serum-starved overnight and plated on fibrinogen or with LPS for 6 hours. Lysates were electrophoresed on 4-12% gradient SDS-PAGE gels and probed with phospho and total Akt antibodies (1:1000, Cell Signaling, Beverly, Mass.). RhoA activation was performed as described (60). Briefly, 2×107 microglia were plated on fibrinogen for 6 hours or with LPS for 10 minutes. Cell lysates were incubated with GST-Rhotekin agarose beads (kindly provided by Dr. Joan Heller Brown, UCSD) for 45 minutes at 4° C. The beads were washed, resuspended in Laemmli sample buffer, and electophoresed on a 15% SDS-PAGE gel. Activated and total Rho were detected with mouse anti-RhoA (1:500, Santa Cruz Biotechnology, Santa Cruz, Calif.). Densitometry was performed using the NIH Scion Image software using three blots from three separate experiments.
# fibrin = biological target: T1, fibrin (Mus musculus, UniProt E9PV24+Q8K0E8+Q8VCM7); experiment: In vitro fibrin polymerization turbidity assay in plasma; type: biochemical; settings: citrate plasma, bovine thrombin 0.2 U/ml, OD350
# T1 construct: from tissue; host or cells: citrated mouse plasma, diluted tenfold
# T1 sequence (Q8VCM7 26-436): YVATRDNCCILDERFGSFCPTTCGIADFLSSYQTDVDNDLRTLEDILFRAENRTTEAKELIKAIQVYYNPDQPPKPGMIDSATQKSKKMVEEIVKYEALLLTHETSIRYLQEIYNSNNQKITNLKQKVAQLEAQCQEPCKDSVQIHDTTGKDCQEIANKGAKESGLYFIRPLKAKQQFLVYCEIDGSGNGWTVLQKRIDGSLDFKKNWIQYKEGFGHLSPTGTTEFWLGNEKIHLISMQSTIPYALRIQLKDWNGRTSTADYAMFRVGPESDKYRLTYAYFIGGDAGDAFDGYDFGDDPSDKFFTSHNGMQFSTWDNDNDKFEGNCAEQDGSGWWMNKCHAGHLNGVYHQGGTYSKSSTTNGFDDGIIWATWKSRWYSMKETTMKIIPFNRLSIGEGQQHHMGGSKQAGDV
# T1 sequence (E9PV24 37-789 limits assumed): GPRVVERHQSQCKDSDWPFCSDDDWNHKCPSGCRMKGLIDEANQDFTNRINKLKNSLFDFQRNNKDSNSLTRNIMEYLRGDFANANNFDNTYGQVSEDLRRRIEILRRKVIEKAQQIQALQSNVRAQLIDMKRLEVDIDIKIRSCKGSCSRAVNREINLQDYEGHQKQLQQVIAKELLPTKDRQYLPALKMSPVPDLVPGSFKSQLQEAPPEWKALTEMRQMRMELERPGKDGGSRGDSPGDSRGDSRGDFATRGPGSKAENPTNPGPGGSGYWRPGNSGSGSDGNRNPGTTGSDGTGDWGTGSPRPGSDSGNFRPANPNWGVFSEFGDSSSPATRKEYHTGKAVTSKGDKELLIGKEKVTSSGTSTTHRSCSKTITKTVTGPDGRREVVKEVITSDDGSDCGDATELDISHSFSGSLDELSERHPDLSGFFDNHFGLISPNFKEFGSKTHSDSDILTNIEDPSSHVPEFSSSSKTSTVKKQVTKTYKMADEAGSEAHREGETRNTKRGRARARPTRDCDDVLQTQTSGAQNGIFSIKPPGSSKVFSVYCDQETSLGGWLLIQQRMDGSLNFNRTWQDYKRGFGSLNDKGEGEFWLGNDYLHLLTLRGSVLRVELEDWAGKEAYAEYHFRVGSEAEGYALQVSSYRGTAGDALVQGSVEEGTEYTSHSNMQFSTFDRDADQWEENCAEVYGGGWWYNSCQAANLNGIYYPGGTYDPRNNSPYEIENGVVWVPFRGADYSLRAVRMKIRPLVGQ
# T1 sequence (Q8K0E8 35-481 limits assumed): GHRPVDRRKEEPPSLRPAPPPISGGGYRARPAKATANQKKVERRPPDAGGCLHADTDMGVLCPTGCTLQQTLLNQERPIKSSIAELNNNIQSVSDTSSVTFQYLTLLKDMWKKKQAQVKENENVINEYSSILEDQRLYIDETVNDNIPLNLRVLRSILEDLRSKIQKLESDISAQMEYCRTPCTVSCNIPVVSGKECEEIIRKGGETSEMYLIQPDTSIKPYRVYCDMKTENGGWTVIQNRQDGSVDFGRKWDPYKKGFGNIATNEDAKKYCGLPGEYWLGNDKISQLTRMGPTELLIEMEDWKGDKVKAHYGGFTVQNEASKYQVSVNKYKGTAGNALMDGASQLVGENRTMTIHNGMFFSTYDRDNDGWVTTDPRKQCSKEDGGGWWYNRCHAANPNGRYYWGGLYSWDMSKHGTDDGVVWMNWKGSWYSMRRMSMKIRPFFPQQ
# Method: Hematological Analyses. Citrated plasma was prepared from mice administered intranasally 30 μg or 90 μg of γ^377-395 peptide or saline control daily for seven days. Plasma clotting times were measured by combining 10 μl of citrated plasma with 10 μl of 2 U/ml bovine thrombin (Enzyme Research Laboratories, South Bend, Ind., USA) and 40 mM. CaCl2 in a weigh boatfloating in a 37° C. water bath. Time to clot was determined by mixing with a toothpick. Plasma thrombin times were established as described previously (15). Fibrin polymerization was evaluated by standard turbidity assays using plasma. Briefly, citrate plasma (diluted tenfold in 20 mM HEPES, pH 7.4, containing 0.15 M NaCl and 5 mM-amino caproic acid) was combined with bovine thrombin (final concentration 0.2 U/ml; Enzyme Research Laboratories, South Bend, Ind., USA), and Ca^2+ (10 mM), and OD350 measurements were taken every 30 seconds.
substance,measurement,setting,value
tyr-ser-met-lys-lys-thr-thr-met-lys-ile-ile-pro-phe-asn-arg-leu-thr-ile-gly (YSMKKTTMKIIPFNRLTIG) (listed as Homo sapiens) [γ^377-395 peptide],effect on fibrin-mediated phosphorylation of Akt,Akt,specifically inhibit
same,effect on fibrin-mediated phosphorylation of Akt,Akt; listed as γ^377-395,blocks
same,effect on LPS-mediated phosphorylation of Akt,Akt,not LPS-mediated
same,effect on LPS-mediated phosphorylation of Akt,Akt; listed as γ^377-395,unaffected
same,effect on fibrin polymerization,fibrin,did not alter; also recorded: had no effect

# Source: patent US8569242B2, “Method of treating degenerative disorders of the nervous system” (The Regents of the University of California, priority 2005, dated 2013)
